Data taken from patent US12098411B2, “Exogenous ketone blend compositions for delivery of ketone bodies” (KetoneAid, Inc., priority 2016, dated 2024).
Like-named read-outs stand apart in the source and are kept apart here.

Legend:
[1] = cited from earlier work
[2] = Ketone blood concentration after ingestion of 1,3-butanediol (FIG. 5, FIG. 6); assay type: in vivo, human
Source text: FIG. 5 depicts an exemplary ketone blood concentration after ingestion of racemic 1,3-butanediol.
FIG. 6 depicts a ketone blood concentration after one person ingested (D)-1,3-butanediol, compared to the results of two people ingesting racemic 1,3-butanediol.
It should also be noted that only the D enantiomer is active in the body as a source of extracellular fuel that is then transported into the cells. Ketone blood level meters currently on the market only measure the blood level of the D enantiomer. Products containing racemic salts require two to three times the amount of sodium, calcium and potassium for an equal amount of (D)-β-hydroxybutyrate. A reason the potential levels of (D)-β-hydroxybutyrate in the blood is over double compared with an equal amount of the racemic solutions is because the body has to waste energy and uses up some of the (D)-β-hydroxybutyrate to burn off the unnatural (L)-β-hydroxybutyrate.
FIG. 5 depicts exemplary results from ingestion of 33 ml racemic 1,3-butanediol. […] For example, as shown, 33 ml of the non-racemic (D) form provided an increase in ketones of approximately 3.2 mmol/L whereas the racemic form provided approximately 0.9-1.0 mmol/L increases over pre consumption ketone levels.

[3] = tested on: pyruvate dehydrogenase impairment; test: Relief of fatigue and cognitive impairment in persons suffering with ALS; assay type: in vivo, human
Source text: Persons suffering with ALS display chronic fatigue and chronic cognitive impairment. The mechanism of impairment has been traced to an impairment with pyruvate dehydrogenase in the mitochondria. Cells of the central nervous system, the heart and skeletal muscles, due to the impairment, lack the critical energy or ATP to function normally. (D)-β-hydroxybutyrate circumvents the pyruvate dehydrogenase impairment and provides for far higher energy and ATP creation in those cells. […] The dosing regimen should be between 5-60 grams 1-3 times per day with the preferred amount to be between 20-40 grams 3 times per day.

CC(O)CC(=O)[O-].[K+] (racemic) [racemic potassium β-hydroxybutyrate, potassium β-hydroxybutyrate]
blood ketones reachable ([1]; consumed at about 100% of potassium's RDA): approximately 0.5 mmol/L

CC(O)CC(=O)[O-].[Na+] (racemic) [racemic sodium β-hydroxybutyrate, sodium β-hydroxybutyrate]
blood ketones reachable ([1]; consumed at about 100-200% of the RDA for sodium): approximately 0.5 mmol/L

CC(O)CCO (centres unmarked) [(D)-1,3-butanediol]
amount of ketones (mmol) in the blood relative to racemic 1,3-butanediol ([2]; 33 ml each, over a 120 minute period): over double
increase in ketones over pre consumption ketone levels ([2]; ingestion of 33 ml): approximately 3.2 mmol/L

C[C@@H](O)CC(=O)O [(D)-β-hydroxybutyrate]
time to significant reduction of fatigue and cognitive impairment after ingestion [3]: ≤ 15 min
